The record followed here is patent US6500843B2, “Inhibitors of rotamase enzyme activity” (GPI NIL Holdings, Inc., priority 1995, dated 2002).

Experiment [1] deals with chick dorsal root ganglion explant cultures. Briefly: Neurite outgrowth in chick dorsal root ganglion explant cultures. In kind it is cell-based. Conditions: for EC50: Gallus gallus.
Procedure: Explants of chick DRG were cultured as described in FIG. 17 above. […] At 48 hrs., neurite outgrowth was quantitated and the cultures were photographed. Dorsal root ganglion were dissected from chick embryos of ten day gestation. […] Twenty-four hours later, the DRG's were treated with various concentrations of nerve growth factor, immunophilin ligands or combinations of NGF plus drugs. Forty-eight hours after drug treatment, the ganglia were visualized under phase contrast or Hoffman Modulation contrast with a Zeiss Axiovert inverted microscope. Photomicrographs of the explants were made, and neurite outgrowth was quantitated. […] Three to four DRGs are cultured per well, and each treatment was performed in duplicate.
The target in experiment [2] is rotamase activity of FKBP-12 (Homo sapiens, UniProt P62942). Briefly: Rotamase inhibition (FKBP-12). The class given is biochemical.
Experiment [3] deals with Sprague-Dawley rats, sciatic nerve crush. Briefly: Sciatic nerve axotomy (crush) model of nerve regeneration. In kind it is in vivo, rat. The procedure: Six-week old male Sprague-Dawley rats were anesthetized, and the sciatic nerve exposed and crushed, at the level of the hip, by forceps. Test compounds or vehicle were administered subcutaneously just prior to the lesion and daily for the following 18 days. Sections of the sciatic nerve were stained with Holmes silver stain to quantify the number of axons, and Luxol fast blue to quantify the level of myelination. Eighteen days after lesion, there was a significant decrease in the number of axons (50% decrease as compared to non-lesioned control) and degree of myelination (90% decrease as compared to non-lesioned control) in animal treated with vehicle.

For another experiment, the target named is recombinant FKBP-12 (Homo sapiens, UniProt P62942). Briefly: Inhibition of 3H-FK506 binding to recombinant FKBP-12. Conditions: read-out: [3H]-FK506-FKBP12 (IC50).
The next experiment relates to PC-12 cells. Briefly: Neurite outgrowth in PC-12 cells in the presence of NGF. Conditions: for Concentration for maximal effects on neurite extension: 4 days; for EC50: Rattus norvegicus.
The next experiment addresses FKBP (Rattus norvegicus, UniProt Q62658). Briefly: [3H]FK506 binding to PC-12 cell homogenates. Conditions: untreated PC-12 cell homogenates, 250 pM radioligand.
The test system of the next experiment is dorsal root ganglia. Briefly: Neurite outgrowth in rat embryonic day 16 dorsal root ganglia explants. In kind it is cell-based. Conditions: no added NGF. The procedure:
Stage E16 embryos were removed from pregnant Sprague-Dawley rats and the dorsal root ganglia dissected. Whole ganglia explants were cultured in collagen-coated 35 mm dishes (Falcon) using N2 medium (Dulbecco's Modified Eagle medium and Ham's F12 medium mixed 1:1 and supplemented with progesterone, selenium, insulin, putrescine, glucose, and penicillin-streptomycin) at 37° C. in a 15% CO2 environment. […] Ganglia were observed every 2-3 days under phase-contrasting using an Olympus IMT-2 inverted microscope, and measurements of axon length were made. The axonal field of each ganglion was divided into four quadrants, and the length of the longest axons in each quadrant was measured in microns using an eye-piece micrometer. The average of these measurements was taken as the axon length for the ganglion.

A further experiment concerns calcineurin. Briefly: Calcineurin inhibition. In kind it is biochemical. Conditions: YES/NO.
Where [4] appears, read: Neuron, Table I, cultured sensory neurons, read-out: Neutrophic ED50 Chick DRGs.
[5] abbreviates: Table I, read-out: Rotamase Inhibition Ki.
The mark [6] stands for this setting: 30 mg/kg s.c. daily, 18 days after lesion.
[7] abbreviates: s.c. daily for 18 days following the lesion.
Where [8] appears, read: PC-12, 96 h, read-out: Half-maximal stimulation of neurite extension.
Setting [9] is: 0.1 ng/ml NGF, 48 hr, read-out: EC50 for stimulating nerve outgrowth in the ganglia.

Like-named read-outs stand apart in the source and are kept apart here.

Chain of rotamase activity of FKBP-12 (P62942 whole entry): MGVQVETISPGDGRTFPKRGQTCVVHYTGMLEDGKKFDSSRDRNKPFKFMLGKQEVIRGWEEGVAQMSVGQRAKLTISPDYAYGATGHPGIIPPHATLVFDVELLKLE
Chain of recombinant FKBP-12 (P62942 whole entry, species assumed): as the sequence (P62942 whole entry) above
Chain of FKBP (Q62658 whole entry): as the sequence (P62942 whole entry) above, with P10S, M50T, T76I counted along it

As for `COc1ccc(CCCCOC(=O)[C@@H]2CCCCN2C(=O)Cc2cc(OC)c(OC)c(OC)c2)cc1` [Example 6], the EC50 in experiment [1] (setting [4]) amounted to 25 nM. Moreover, in experiment [2] (setting [5]), the Ki was 140 nM.
For `COc1ccc(CCCCOC(=O)[C@@H]2CCCCN2C(=O)C(=O)c2cc(OC)c(OC)c(OC)c2)cc1` [Example 9], the EC50 in experiment [1] (setting [4]) was determined as 0.03 nM.
Turning to `CCC(C)(C)C(=O)C(=O)N1CCCCC1C(=O)OCCCc1cc(OC)c(OC)c(OC)c1` (stereo not shown) [Example 13], in experiment [3] (setting [6]), the “Axon Number (% Control)” value is 100 % Control and the “Myelin Level” value is listed as 50. In addition, in experiment [3] (setting [7]), the “Decrease in axon number as compared to non-lesioned control” value was found to be 5% and the “Decrease in degree of myelination as compared to control” value is given as 50%. For the same compound, the Ki in experiment [2] (setting [5]) came to 25 nM. Besides, on recombinant FKBP-12 (Table 3), the IC50 stood at 4000 nM.
For `CC1(C)COC(=O)CCCCCCCCCOC(=O)[C@@H]2CCCCN2C(=O)C1=O` [Example 19], in experiment [1] (setting [4]), the EC50 amounted to 0.017 nM. Moreover, in experiment [2] (setting [5]), the Ki turned out to be 12 nM.
For the compound `CCOC(=O)C1CCCCN1C(=O)C(C)=O` (stereo not shown) [Example 36], the Ki in experiment [2] (setting [5]) was more than 10000 nM.
With `CCOC(=O)C1CCCCN1C(=O)C(=O)C(C)(C)CC` (stereo not shown) [Example 41], the Ki in experiment [2] (setting [5]) worked out at 1300 nM.
On to `CCOC(=O)C1CCCCN1C(=O)C(=O)c1ccccc1` (stereo not shown) [Example 50], for which, in experiment [2] (setting [5]), the Ki is more than 10000 nM.
As for `CCC(C)(C)C(=O)C(=O)N1CCCCC1C(=O)OCC=Cc1ccc(Cl)c(Cl)c1` (stereo not shown) [Example 90], the EC50 in experiment [1] (setting [4]) was determined as 2500 nM. The Ki in experiment [2] (setting [5]) was 1800 nM.
`CCC(C)(C)C(=O)C(=O)N1CCCCC1C(=O)OCC=Cc1cc(OC)c(OC)c(OC)c1` (stereo not shown) [Example 91]: in experiment [1] (setting [4]), the EC50 stood at 200 nM. In addition, the Ki in experiment [2] (setting [5]) amounted to 28 nM.
For `CCC(C)(C)C(=O)C(=O)N1CCCCC1C(=O)OCC=Cc1ccccc1` (stereo not shown) [Example 92], in that order: 90 nM and 39 nM.
Regarding `CCC(C)(C)C(=O)C(=O)N1CCCC[C@H]1C(=O)OCCCc1cc(OC)ccc1OC` [Example 93], the inhibition constant Ki in experiment [2] (setting [5]) is 75 nM.
Still for that read-out and setting: the same measure for `CCC(C)(C)C(=O)C(=O)N1CCCC[C@H]1C(=O)OCCCc1ccc2c(c1)OCO2` [Example 94]: 70 nM; for `COc1ccc(CCCCOC(=O)[C@@H]2CCCCN2C(=O)C(=O)c2ccccc2)cc1` [Example 95]: 165 nM.
In the case of `O=C(C(=O)N1CCCC[C@H]1C(=O)OCCCc1ccccc1)c1ccccc1` [Example 96], the Ki in experiment [2] (setting [5]) stood at 740 nM.
On to `CCC(C)(C)C(=O)C(=O)N1CCCC[C@H]1C(=O)OCCCc1cccnc1` [Example 98], for which the EC50 in experiment [1] (setting [4]) was 75 nM. Besides, in experiment [2] (setting [5]), the Ki came to 130 nM.
Regarding `CCC(C)(C)C(=O)C(=O)N1CCCC[C@H]1C(=O)OC(CCCc1ccccc1)CCCc1ccccc1` [Example 99], in experiment [1] (setting [4]), the EC50 was 5 nM.
For `CCC(C)(C)C(=O)C(=O)N1CCCC[C@H]1C(=O)OCCCCc1ccc(OC)cc1` [Example 100], the Ki in experiment [2] (setting [5]) worked out at 60 nM.
`CCC(C)(C)C(=O)C(=O)N1CCCCC1C(=O)OC(CCCc1ccccc1)CCc1ccc(OC)cc1` (stereo not shown) [Example 101]: the EC50 in experiment [1] (setting [4]) was determined as 0.17 nM. The Ki in experiment [2] (setting [5]) was 15 nM.
On to `CCC(C)(C)C(=O)C(=O)N1CCCC[C@H]1C(=O)OCCCc1cc(OC)ccc1OC` [Example 102], for which the “Neurite outgrowth in photomicrographs” value in experiment [1] (1 pM, 100 pM and 100 nM (FIGS. 19-21)) is recorded as “promoting neurite outgrowth”. Moreover, the EC50 in experiment [1] (setting [4]) was determined as 205 nM. The Ki in experiment [2] (setting [5]) came to 12 nM.
Take `CCC(C)(C)C(=O)C(=O)N1CCCC[C@H]1C(=O)OCCCc1ccc2c(c1)OCO2` [Example 103]: the EC50 in experiment [1] (setting [4]) came out at 3 nM. For the same compound, the inhibitory constant (Ki) in experiment [2] (setting [5]) is 120 nM.
`CCC(C)(C)C(=O)C(=O)N1CCCC[C@H]1C(=O)OC(CCCCc1ccccc1)c1ccccc1` (stereo partly shown) [Example 104]: in experiment [2] (setting [5]), the Ki came to 20 nM.
Same read-out and setting: the value for `COc1ccc(CCCCOC(=O)[C@@H]2CCCCN2C(=O)C(=O)C2CCCCC2)cc1` [Example 105] was 103 nM.
For `O=C(C(=O)N1CCCC[C@H]1C(=O)OCCCC1CCCCC1)C1CCCCC1` [Example 106], the EC50 in experiment [1] (setting [4]) worked out at 1 nM. For the same compound, the Ki in experiment [2] (setting [5]) was determined as 760 nM.
For `O=C(C(=O)N1CCCC[C@H]1C(=O)OCCCc1ccccc1)C1CCCCC1` [Example 107], in that order: 0.82 nM and 210 nM.
On to `C=CC[C@@H]1/C=C(\C)C[C@H](C)C[C@H](OC)[C@H]2O[C@@](O)(C(=O)C(=O)N3CCCC[C@H]3C(=O)O[C@H](/C(C)=C/[C@@H]3CC[C@@H](O)[C@H](OC)C3)[C@H](C)[C@@H](O)CC1=O)[C@H](C)C[C@@H]2OC` [FK506], for which the “Maximal enhancement of neurite outgrowth” value in the experiment on PC-12 cells (0.5 ng/ml NGF, 100 nM drug, 96 hours) is 2.5 fold. Moreover, the “Concentration for maximal effects on neurite extension” value (“Concentration for maximal effects” for short) in the experiment with PC-12 cells (0.5 ng/ml NGF) was 5 to 100 nM. In addition, in the experiment on PC-12 cells (1 ng/ml NGF, 48 hr), the “Concentration eliciting the same maximal outgrowth observed with 50 ng/ml NGF” value was found to be 1 nM. In the experiment with PC-12 cells (FK506 100 nM, 48 hr), the “Reduction of the NGF concentration needed to elicit maximal outgrowth” value is 20-50 fold. The EC50 in the experiment with PC-12 cells (PC-12, 48 h, read-out: Half maximal effects on neurite outgrowth) was approximately 0.1 nM; in the experiment with PC-12 cells (setting [8]) it was 0.5 nM; with PC-12 cells (PC-12, read-out: Neurite Outgrowth (ED50)), 0.5 nM; in experiment [1] (setting [9]) it was 1 to 2 nM. For the same compound, the IC50 on FKBP is 1 to 2 nM. The “Concentration producing a noticeable increase in growth” value in the experiment on dorsal root ganglia was determined as 1 nM. Besides, the “Concentration producing detectable augmentation of neurite outgrowth” value in the experiment on dorsal root ganglia is on record as 1 pM. In addition, the “Concentration required for maximal outgrowth” value in the experiment on dorsal root ganglia was determined as 1 pM.
Consider `CO[C@H]1C[C@@H]2CC[C@@H](C)[C@@](O)(O2)C(=O)C(=O)N2CCCC[C@H]2C(=O)O[C@H]([C@H](C)C[C@@H]2CC[C@@H](O)[C@H](OC)C2)CC(=O)[C@H](C)/C=C(\C)[C@@H](O)[C@@H](OC)C(=O)[C@H](C)C[C@H](C)/C=C/C=C/C=C/1C` [Rapamycin], for which the “Concentration for maximal effects” value in the experiment with PC-12 cells (0.5 ng/ml NGF) lay within 10 to 100 nM. For the same compound, in the experiment on PC-12 cells (0.1-0.5 ng/ml NGF, 100 nM drug, 96 hours), the “Stimulation of neurite outgrowth” value is listed as 3-4 fold. In addition, the EC50 was 0.2 to 0.4 nM in the experiment with PC-12 cells (setting [8]) and 1 nM in experiment [1] (setting [9]).
Regarding `COC1CC2CCC(C)C(O)(O2)C(=O)C(=O)N2CCCCC2C(=O)OC(C(C)CC2CCC(O)C(OC)C2)CC(=O)C(C)C=C(C)C(O)C(OC)C(=O)C(C)CC(C)C2C=CC(C=C1C)n1c(=O)n(-c3ccccc3)c(=O)n12` (stereo not shown) [WAY-124466], the “Concentration for maximal effects” value with PC-12 cells (0.5 ng/ml NGF) was 100-1,000 nM. The EC50 in the experiment on PC-12 cells (setting [8]) is approximately 10 nM. The “Potentiation of neurite extension elicited by NGF” value with PC-12 cells (picomolar concentrations, 0.5 ng/ml NGF, 4 days (FIG. 15)) is recorded as “potentiate neurite extension”. Further, the “Potentiation of NGF-dependent neurite production in sensory ganglia” value in experiment [1] (100 nM, plus or minus 0.1 ng/ml NGF, 48 hrs (FIG. 18)) is recorded as “potentiate NGF-dependent neurite production”. In experiment [2] (Table 2, read-out: Rotamase (Ki)), the Ki is 12 nM. In the experiment with calcineurin, the “Calcineurin Inhibition” value is on record as “fails to inhibit calcineurin”. Further, the IC50 on recombinant FKBP-12 (Table 2) amounted to 10 nM.
For NGF: nerve growth factor, in the experiment on PC-12 cells (48 hr), the “NGF concentration for maximal augmentation of neurite outgrowth” value lay in the range of 50 to 100 ng/mL. The “NGF concentration for half maximal outgrowth in the presence of FK506” value in the experiment with PC-12 cells (FK506 100 nM, 48 hr) worked out at 0.1 ng/mL. In the experiment with PC-12 cells (NGF alone at 0.1 ng/ml), the “Neurite extension as % of maximal effects evident at 50 ng/ml NGF” value is listed as “about 15%”.

The Ki is the dissociation constant of the complex between target and ligand, obtained from inhibition or displacement. By IC50 is commonly meant the concentration that gives 50% inhibition.
